Test results: PMC9106035, “Synthesis, X-ray Structure and Biological Studies of New Self-Assembled Cu(II) Complexes Derived from s-Triazine Schiff Base Ligand” (Molecules, 2022)
≈ marks a conversion by molar mass, not a printed value.

Assays:
[1] = DPPH radical scavenging assay; type: biochemical
How it was run: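 Methanolic compound solution was added to 0.004 %w/v methanolic DPPH, and absorbance at 515 nm was followed each minute until stable at 16 min. Percent inhibition was taken as control absorbance at 0 min versus sample at 16 min, in triplicate. IC50 was estimated from dose-response plots, with ascorbic acid as reference.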

[2] = tested on: lung carcinoma A-549 cell line; assay: Anticancer activity, MTT viability assay; type: cell-based
[3] = Cytotoxic activity on normal cells, MTT viability assay; type: cell-based, human; conditions: human, MRC-5 normal lung fibroblast cells
Procedure: (§1) In this regard, the selectivity index (SI) was calculated as the ratio of cytotoxic effect on the normal cell line to the cytotoxic effect on the cancer cell line.
(§2) Method S4 Evaluation of Cytotoxic activity
(§3) The cells were propagated in Dulbecco’s modified Eagle’s medium (DMEM) supplemented with 10% heat-inactivated fetal bovine serum, 1 % L-glutamine, HEPES buffer and 50µg/mL Gentamycin. All cells were maintained at 37 °C in a humidified atmosphere with 5% CO2 and were subcultured tw o times a week.
(§4) Cytotoxicity evaluation using viability assay
(§5) For cytotoxicity assay, the cells were seeded in 96-well plate at a cell concentration of 1×10^4 cells per well in 100µl of growth medium. Fresh medium containing different concentrations of the test sample was added after 24 h of seeding. Serial two-fold dilutions of the tested chemical compound were added to confluent cell monolayers dispensed into 96-well, flat-bottomed microtiter plates (Falcon, NJ, USA) using a multichannel pipette. The microtiter plates were incubated at 37 °C in a humidified incubator with 5% CO2 for a period of 24 h. Three wells were used for each concentration of the test sample. Control cells were incubated without test sample and with or without DMSO. The little percentage of DMSO present in the […]
(§6) cells for at 37°C, for 24 h, the viabl e cells yield was determined by the MTT test.
(§7) Briefly, the media was removed from the 96 well plate and replaced with 100 µL of fresh culture DMEM m edium without phenol red then 10 µL of the 12 mM MTT stock solution (5 mg of MTT in 1 mL of PBS) to each well including the untreated controls. The 96 well plates were then incubated at 37°C and 5% CO2 for 4 hours. An 85 µL aliquot of the media was removed from t he wells, and 50 µL of DMSO was added to each well and mixed thoroughly with the pipette and incubated at 37°C for 10 min. Then, the optical density was measured at 590 nm with the microplate reader (SunRise, TECAN, Inc, USA) to determine the number of viable cells and the percentage of viability was calculat ed as [(ODt/ODc)]x100% where ODt i s the mean optical density of wells treated with the tested s ample and ODc is the mean optical density of untreated cells. The relation between surviving cells and drug concentration is plotted to get the survival curve of each tumor cell line after treatment with the specified compound. The 50% inhibitory concentration (IC50), the concentration required to cause t oxic effects in 50% of intact cells, was estimated from graphic plots of the dose response curve for each conc. using Graphpad Prism software (San Diego, […]

[4] = tested on: normal human lung fibroblast MRC-5 cells; assay: as above; type: cell-based; conditions: Homo sapiens, MRC5, MRC-5, Table S12, read-out: Inhibitory %
Procedure: as §1, §2, §3, §4, §5, §6, §7

CC(=NNc1nc(N2CCOCC2)nc(N2CCOCC2)n1)c1ccccc1O [DMOHT, 2-(1-(2-(4,6-dimorpholino-1,3,5-triazin-2-yl)hydrazono)ethyl)phenol]
DPPH Scavenging % ([1]; Conc. 2.5 μg/mL): 5.73%
DPPH Scavenging % ([1]; Conc. 5 μg/mL): 10.48%
DPPH Scavenging % ([1]; Conc. 10 μg/mL): 19.87%
DPPH Scavenging % ([1]; Conc. 20 μg/mL): 31.95%
DPPH Scavenging % ([1]; Conc. 40 μg/mL): 47.09%
DPPH Scavenging % ([1]; Conc. 80 μg/mL): 61.32%
DPPH Scavenging % ([1]; Conc. 160 μg/mL): 73.64%
DPPH Scavenging % ([1]; Conc. 320 μg/mL): 84.93%
DPPH Scavenging % ([1]; Conc. 640 μg/mL): 88.54%
DPPH Scavenging % ([1]; Conc. 1280 μg/mL): 93.87%
IC50 (DPPH scavenging) ([1]; antioxidant activity): 48.2 ± 1.08 µg/mL (≈ 121 µM)
SI = CC50/IC50 ([2]; CC50 (MRC-5) / IC50 (A-549)): 1.77
viability at 2.5 µM ([2]; Homo sapiens, A549, A-549, sample conc. 2.5 µM, Table S7): 100%
inhibition at 2.5 µM ([2]; Homo sapiens, A549, A-549, sample conc. 2.5 µM, Table S7, read-out: Inhibitory %): 0%
viability at 5 µM ([2]; Homo sapiens, A549, A-549, sample conc. 5.0 µM, Table S7): 100%
inhibition at 5 µM ([2]; Homo sapiens, A549, A-549, sample conc. 5.0 µM, Table S7, read-out: Inhibitory %): 0%
viability at 9.8 µM ([2]; Homo sapiens, A549, A-549, sample conc. 9.8 µM, Table S7): 100%
inhibition at 9.8 µM ([2]; Homo sapiens, A549, A-549, sample conc. 9.8 µM, Table S7, read-out: Inhibitory %): 0%
viability at 19.5 µM ([2]; Homo sapiens, A549, A-549, sample conc. 19.5 µM, Table S7): 100%
inhibition at 19.5 µM ([2]; Homo sapiens, A549, A-549, sample conc. 19.5 µM, Table S7, read-out: Inhibitory %): 0%
viability at 39.1 µM ([2]; Homo sapiens, A549, A-549, sample conc. 39.1 µM, Table S7): 100%
inhibition at 39.1 µM ([2]; Homo sapiens, A549, A-549, sample conc. 39.1 µM, Table S7, read-out: Inhibitory %): 0%
viability at 78.2 µM ([2]; Homo sapiens, A549, A-549, sample conc. 78.2 µM, Table S7): 98.2%
inhibition at 78.2 µM ([2]; Homo sapiens, A549, A-549, sample conc. 78.2 µM, Table S7, read-out: Inhibitory %): 1.75%
viability at 156.5 µM ([2]; Homo sapiens, A549, A-549, sample conc. 156.5 µM, Table S7): 90.7%
inhibition at 156.5 µM ([2]; Homo sapiens, A549, A-549, sample conc. 156.5 µM, Table S7, read-out: Inhibitory %): 9.33%
viability at 312.9 µM ([2]; Homo sapiens, A549, A-549, sample conc. 312.9 µM, Table S7): 75.1%
inhibition at 312.9 µM ([2]; Homo sapiens, A549, A-549, sample conc. 312.9 µM, Table S7, read-out: Inhibitory %): 24.9%
viability at 625.8 µM ([2]; Homo sapiens, A549, A-549, sample conc. 625.8 µM, Table S7): 43.9%
inhibition at 625.8 µM ([2]; Homo sapiens, A549, A-549, sample conc. 625.8 µM, Table S7, read-out: Inhibitory %): 56.1%
viability at 1251.7 µM ([2]; Homo sapiens, A549, A-549, sample conc. 1251.7 µM, Table S7): 21.5%
inhibition at 1251.7 µM ([2]; Homo sapiens, A549, A-549, sample conc. 1251.7 µM, Table S7, read-out: Inhibitory %): 78.5%
IC50 ([2]; Homo sapiens, A549, A-549 cells, 24 h, MTT): 565 µM
viability at 24 h, 2.5 µM ([3]; MRC-5, sample conc. 2.5 µM, Table S12): 100%
viability at 24 h, 5 µM ([3]; MRC-5, sample conc. 5.0 µM, Table S12): 100%
viability at 24 h, 9.8 µM ([3]; MRC-5, sample conc. 9.8 µM, Table S12): 100%
viability at 24 h, 19.5 µM ([3]; MRC-5, sample conc. 19.5 µM, Table S12): 100%
viability at 24 h, 39.1 µM ([3]; MRC-5, sample conc. 39.1 µM, Table S12): 100%
viability at 24 h, 78.2 µM ([3]; MRC-5, sample conc. 78.2 µM, Table S12): 100%
viability at 24 h, 156.5 µM ([3]; MRC-5, sample conc. 156.5 µM, Table S12): 97.9%
viability at 24 h, 312.9 µM ([3]; MRC-5, sample conc. 312.9 µM, Table S12): 89.6%
viability at 24 h, 625.8 µM ([3]; MRC-5, sample conc. 625.8 µM, Table S12): 67.6%
viability at 24 h, 1251.7 µM ([3]; MRC-5, sample conc. 1251.7 µM, Table S12): 38.2%
CC50 at 24 h ([3]; MRC-5 cells, 24 h, MTT): 1000 µM
inhibition at 2.5 µM ([4]; sample conc. 2.5 µM): 0%
inhibition at 5 µM ([4]; sample conc. 5.0 µM): 0%
inhibition at 9.8 µM ([4]; sample conc. 9.8 µM): 0%
inhibition at 19.5 µM ([4]; sample conc. 19.5 µM): 0%
inhibition at 39.1 µM ([4]; sample conc. 39.1 µM): 0%
inhibition at 78.2 µM ([4]; sample conc. 78.2 µM): 0%
inhibition at 156.5 µM ([4]; sample conc. 156.5 µM): 2.14%
inhibition at 312.9 µM ([4]; sample conc. 312.9 µM): 10.4%
inhibition at 625.8 µM ([4]; sample conc. 625.8 µM): 32.4%
inhibition at 1251.7 µM ([4]; sample conc. 1251.7 µM): 61.8%
